Data as given in patent publication US6432883B1, “Methods of treating plants with glycolic acid” (Emerald BioAgriculture Corporation, priority 2000, dated 2002).

Experiments:
[1] = system: Sclerotinia minor; assay: Colony radius of plant pathogen on amended potato dextrose agar; type: cell-based; conditions: in PDA, 4 days, about 23° C., FIG. 5
From the text: Sclerotinia minor culture SaM-18 was received from Krishna Subbarro, Ph.D., Univ. Calif., Davis. Potato dextrose agar (PDA) powder was purchased from Baltimore Biological Laboratory, Inc. (BBL), ammonium glycolate and glycolic acid from DuPont Specialty Chemicals and BreakThru® surfactant from Goldschmidt Chemical Corp.
PDA was made, poured into sterile disposable petri dishes (100×15 mm) and inoculated with S. minor sclerotia to start new cultures on day zero. These cultures had reached an appropriate stage of maturation for use for use in the test after two weeks of growth. Multiple 1 liter containers of PDA were made and autoclaved on day 14. These PDA containers remained in the circulating water bath at 46° C. until the solutions were ready for addition (about 2 hrs.). The glycolic acid-containing compositions were added to the 46° C. PDA through a syringe-tip 0.2 μm-pore sterile filtration disc in a positive laminar-flow sterile hood and thoroughly mixed before returning to the 46° C. water bath to await pouring. Stacks of 22 dishes were poured for each medium type and allowed to solidify and cool overnight.
On day 15, soft, white to gray, sclerotial clumps of hyphae were picked from the culture dishes with heat sterilized forceps and one clump was transferred to the center of each test medium dish. Twenty dishes of each inoculated medium were stacked and replaced into the plastic sleeves they were originally packaged in for incubation at room temperature (about 23° C.). After 4 days of growth, some of the cultures had just reached the edges of the medium. The radius of each colony was measure in mm.
Treatments were water controls, 0.05% surfactant controls, 5, 15, 50, 75 and 100 ppm of glycolic acid (F12) and 5, 15, 50, 100 and 750 ppm of ammonia-neutralized glycolic acid (F18; i.e., ammonium glycolate).

[2] = system: cabbage; assay: Cabbage drought stress: fresh and dry weights; type: in vivo
Procedure: Market Prize, F1 cabbage seed, lot 88955, as described in example 7, was treated identically as in example 7, except that drought stress was imposed by withholding water 7 days following the second spray and continuing to withhold water for 13 sequential days thereafter. Drought tolerance was assessed by measuring both the fresh and dried weights of the plants.

[3] = system: cabbage; assay: Cabbage plant growth stimulation: fresh and dry weights; type: in vivo; conditions: 5, 15 or 50 ppm spray, FIGS. 1 and 2
Procedure: Market Prize, F1 cabbage seed, lot 88955, was purchased from Harris Seeds, Inc. (Rochester, N.Y.) and grown 2 plants per 4″×4″×4″ pot, 1 pot per experimental unit and 6 experimental units per each of 4 replications. The plants were spray-treated first at 2 true leaves and again 7 days later with 8 ml solution per pot.
The treatments included a non-treated control (NTC), 0.05% Breakthru® (a silicone-based surfactant obtained from Goldschmidt Chemical, Hopewell, Va.) control, and 5, 15 or 50 ppm of either Glypure® (F12; 99% high purity crystalline glycolic acid), or ammonia-neutralized Glypure® [F18; a 50% (w/v) solution made by neutralizing 70% high purity glycolic acid from DuPont with ammonium hydroxide to a pH of 4.4. Growth stimulation was assessed by measuring both the fresh and dry weights of the plants.

Question: Which “Sclerotinia growth compared to equivalent amounts of glycolic acid” value [1] does the source give for `N.O=C(O)CO` [F18, ammonium glycolate] here?
Answer: significantly more

Question: What about the “growth of Sclerotinia minor (colony radius) compared to controls” value [1] of the same compound?
Answer: statistically significantly increased the growth

Question: And the “resistance to the effects of drought stress compared to equivalent amounts of F12” value ([2]; 5, 15 and 50 ppm, plant weight)?
Answer: statistically significantly greater effect

Question: And the “fresh weight of the cabbage compared to controls” value ([2]; drought, water withheld 13 days, 5, 15, 50 ppm, FIG. 3)?
Answer: statistically significantly increased

Question: What about the “dry weight of the cabbage compared to controls” value ([2]; drought, water withheld 13 days, 5, 15, 50 ppm, FIG. 4) of the same compound?
Answer: statistically significantly increased

Question: And the “plant growth (fresh and dry weights) compared to the controls” value [3]?
Answer: statistically significantly stimulated plant growth

Question: What about the “plant growth compared to equivalent amounts of F12” value [3] of the same compound?
Answer: stimulated plant growth to a greater extent
